The text below walks through data of patent US20220273752A1, “MODULATION OF DENDRITIC CELL FUNCTION BY THE PHOSPHOLIPID MESSENGER LPA” (Cornell University, priority 2019, published 2022).

What all share (format): cell-based, murine
Assay [1] has as its system BMDCs. As to the kind of experiment: RT-qPCR of type-I IFN target genes in BMDCs. The protocol:
FIG. 11A-11H illustrate that LPA downregulates type-I IFN target genes in dendritic cells. BMDCs were left untreated or incubated with LPA (100 uM) for 2 hours and 6 hours, and gene expression was determined by RT-qPCR. **P<0.001, ***P<0.0005, ****P<0.0001. FIG. 11A illustrates downregulation of Ddx58 mRNA (encoding DExD/H-box helicase 58) relative to Actb expression at 2 hours and 6 hours after LPA treatment of BMDCs. FIG. 11B illustrates downregulation of Ifit1 mRNA (encoding interferon-induced protein with tetratricopeptide repeats 1) relative to Actb expression at 2 hours and 6 hours after LPA treatment of BMDCs. FIG. 11C illustrates downregulation of Ifit2 mRNA (encoding interferon-induced protein with tetratricopeptide repeats 2) relative to Actb expression at 2 hours and 6 hours after LPA treatment of BMDCs. FIG. 11D illustrates downregulation of Isg15 mRNA (interferon-stimulated gene 15) relative to Actb expression at 2 hours and 6 hours after LPA treatment of BMDCs. FIG. 11E illustrates downregulation of Ciita mRNA (encoding a Class II Major Histocompatibility Complex Transactivator) relative to Actb expression at 2 hours and 6 hours after LPA treatment of BMDCs. FIG. 11F illustrates downregulation of Oas1a mRNA (encoding 2′-5′ oligoadenylate synthetase 1A) relative to Actb expression at 2 hours and 6 hours after LPA treatment of BMDCs. […]
On the technique in general: Quantitative PCR measures a nucleic acid by following its amplification.

In assay [2] the test system is dendritic cells. As to the kind of experiment: Genome-wide transcriptional profiling of dendritic cells by RNA-seq. Conditions: 100 μM LPA. The protocol: RNA was obtained from LPA-treated bone marrow-derived DCs (BMDCs) and RNA sequencing was performed. The RNA-sequencing data and Ingenuity Pathway Analyses (IPA) was performed on the RNA from LPA-treated bone marrow-derived DCs (BMDCs).

For assay [3], the system named is BMDCs, sDCs and pDCs. Briefly: IFN-β ELISA in DCs stimulated with TLR agonists. The following applies: Poly (I:C), LPS or CpG ODN1585, LPA 10 uM and 100 uM. Here is the method: FIG. 12A-12D illustrate that LPA represses IFN-β production by diverse DC types. Splenic dendritic cells (sDCs), bone marrow dendritic cells (BMDCs) and plasmacytoid dendritic cells (pDCs) were stimulated with Poly (I:C) (a high molecular weight, synthetic analog of double-stranded RNA (dsRNA) that is a potent inducer of interferon), LPS (lipopolysaccharide) or CpG ODN1585 (a synthetic immunostimulatory oligonucleotide) in the presence or absence of LPA (10 uM and 100 uM). IFN-β protein expression levels were determined by ELISA. **P<0.001, ***P<0.0005, ****P<0.0001. FIG. 12A illustrates IFN-β protein expression in splenic DCs (sDCs) after treatment with LPA and/or Poly (I:C). FIG. 12B illustrates IFN-β protein expression in bone marrow dendritic cells (BMDCs) after treatment with LPA and/or Poly (I:C). FIG. 12C illustrates IFN-β protein expression in bone marrow dendritic cells (BMDCs) after treatment with LPS and/or LPA. FIG. 12D illustrates IFN-β protein expression in plasmacytoid DCs (pDCs) after treatment with ODN1585 and/or LPA.
These effects also occurred in diverse DC types such as BMDCs, splenic DCs (sDCs) and plasmacytoid DCs (pDCs) during stimulation through Toll-like Receptors (TLRs) or upon exposure to cancer cells treated with inhibitors of poly ADP-ribose polymerase (PARP) that induce DNA damage. […] The structure of Talazoparib is shown below.
(In general: An ELISA detects its analyte on a solid surface through an enzyme-linked reagent.)

Assay [4] has as its system bone marrow-derived dendritic cells (BMDCs). As to the kind of experiment: Antigen presentation: OVA-pulsed BMDCs co-cultured with CFSE-labeled OT-II T cells. Conditions: 100 μM LPA, 6 hours, then OVA 3 hours, OT-II T cell proliferation 3 days later. Here is the method: FIG. 3A-3C illustrate that LPA inhibits the antigen-presenting capacity of dendritic cells. Bone marrow-derived dendritic cells (BMDCs) were exposed to 100 μM LPA for 6 hours and then pulsed with full-length ovalbumin (OVA) for 3 hours.
Cells were washed and co-cultured with OVA-specific OT-II T cells labeled with carboxyfluorescein succinimidyl ester (CFSE, which stains intracellular molecules, typically lysine residues). T cell proliferation was assessed by FACS 3 days later.
FIG. 3C graphically illustrates the division index of proliferating cells as determined by FlowJo analysis. ****P<0.0001.

Assay [5] has as its system TBK1 and IRF3 proteins in BMDCs. As to the kind of experiment: Western blot of TBK1 and IRF3 phosphorylation in BMDCs. The following applies: LPS- or Poly(I:C)-treated BMDCs; compared with untreated. Here is the method: The activation status of signaling pathways implicated in the optimal induction of type-I IFNs was then evaluated.
Background: Immunoblotting shows a protein as a band on a membrane.

In assay [6] the test system is bone marrow-derived dendritic cells (BMDCs). As to the kind of experiment: Bodipy 493/503 staining of intracellular lipids in BMDCs by FACS. The following applies: 100 μM LPA, 6 hours. From the text:
Bodipy 493/503 staining was used to detect intracellular lipids by FACS. ***P<0.0005. FIG. 2B graphically illustrates quantities of Bodipy-stained intracellular lipids in LPA-treated cells compared to untreated cells.

For lysophosphatidic acid [LPA], the “type-I IFN target gene expression (Ddx58, Ifit1, Ifit2, Isg15, Ciita, Oas1a, Oas1g, Oas2)” value in assay [1] (BMDCs, LPA 100 uM, 2 hours and 6 hours) is given as “decreased”. Besides, the “expression of type-I IFN-related genes in BMDCs exposed to Talazoparib-treated ovarian cancer cells” value in assay [1] (coculture) is “prevented expression”. Also, the “number of genes demonstrating severe deregulation” value in assay [2] was ~4,000 genes. Further, in assay [3], the “IFN-β protein levels upon TLR agonist stimulation” value is on record as “decreased levels”. Moreover, the “antigen-presenting capacity of dendritic cells” value in assay [4] was “inhibits”. Also, the “phosphorylation of TBK1 and IRF3 proteins” value in assay [5] is “inhibited phosphorylation”. Further, the “intracellular lipid accumulation in dendritic cells” value in assay [6] was “induces intracellular lipid accumulation”.
